Reference: ChEMBL document CHEMBL5143517, “Discovery and radiosensitization research of ursolic acid derivatives as SENP1 inhibitors” (Eur J Med Chem, 2022)

experiment: Cytotoxicity against human HeLa cells assessed as inhibition of cell growth incubated for 72 hrs by CCK-8 assay; type: toxicity, cell-based

SMILES | IC50 at 72 h [µM]
C[C@H]1[C@H](C)CC[C@]2(C(=O)N3CCC[C@H]3C(=O)O)CC[C@]3(C)C(=CC[C@@H]4[C@@]5(C)CC[C@H](O)C(C)(C)[C@@H]5CC[C@]43C)[C@H]12 | > 20
COC(=O)CNC(=O)[C@]12CC[C@@H](C)[C@H](C)[C@H]1C1=CC[C@@H]3[C@@]4(C)CC[C@H](OC(C)=O)C(C)(C)[C@@H]4CC[C@@]3(C)[C@]1(C)CC2 | > 20
CNC(=O)CCNC(=O)[C@]12CC[C@@H](C)[C@H](C)[C@H]1C1=CC[C@@H]3[C@@]4(C)CC[C@H](OC(C)=O)C(C)(C)[C@@H]4CC[C@@]3(C)[C@]1(C)CC2 | > 20
C[C@H]1[C@H](C)CC[C@]2(C(=O)OCCO)CC[C@]3(C)C(=CC[C@@H]4[C@@]5(C)CC[C@H](O)C(C)(C)[C@@H]5CC[C@]43C)[C@H]12 | > 20
C[C@H]1[C@H](C)CC[C@]2(C(=O)OCCNC(=O)OC(C)(C)C)CC[C@]3(C)C(=CC[C@@H]4[C@@]5(C)CC[C@H](O)C(C)(C)[C@@H]5CC[C@]43C)[C@H]12 | > 20
C[C@H]1[C@H](C)CC[C@]2(C(=O)NCCBr)CC[C@]3(C)C(=CC[C@@H]4[C@@]5(C)CC[C@H](O)C(C)(C)[C@@H]5CC[C@]43C)[C@H]12 | > 20
C[C@H]1[C@H](C)CC[C@]2(C(=O)OCCN3CCN(CCO)CC3)CC[C@]3(C)C(=CC[C@@H]4[C@@]5(C)CC[C@H](O)C(C)(C)[C@@H]5CC[C@]43C)[C@H]12 | > 20
COC(=O)COC(=O)[C@]12CC[C@@H](C)[C@H](C)[C@H]1C1=CC[C@@H]3[C@@]4(C)CC[C@H](O)C(C)(C)[C@@H]4CC[C@@]3(C)[C@]1(C)CC2 [3BETA-HYDROXY-URS-12-EN-28-METHYL ACETOACETATE] | > 20
C[C@H]1[C@H](C)CC[C@]2(C(=O)N[C@@H](C)c3ccccc3)CC[C@]3(C)C(=CC[C@@H]4[C@@]5(C)CC[C@H](O)C(C)(C)[C@@H]5CC[C@]43C)[C@H]12 | > 20
C[C@H]1[C@H](C)CC[C@]2(C(=O)NCC(N)=O)CC[C@]3(C)C(=CC[C@@H]4[C@@]5(C)CC[C@H](O)C(C)(C)[C@@H]5CC[C@]43C)[C@H]12 | > 20
C[C@H]1[C@H](C)CC[C@]2(C(=O)OCCN3CCOCC3)CC[C@]3(C)C(=CC[C@@H]4[C@@]5(C)CC[C@H](O)C(C)(C)[C@@H]5CC[C@]43C)[C@H]12 | > 20
CC(=O)O[C@H]1CC[C@]2(C)[C@H]3CC=C4[C@@H]5[C@@H](C)[C@H](C)CC[C@]5(C(N)=O)CC[C@@]4(C)[C@]3(C)CC[C@H]2C1(C)C | > 20
COC(=O)[C@@H]1CCCN1C(=O)[C@]12CC[C@@H](C)[C@H](C)[C@H]1C1=CC[C@@H]3[C@@]4(C)CC[C@H](OC(C)=O)C(C)(C)[C@@H]4CC[C@@]3(C)[C@]1(C)CC2 | > 20
CNC(=O)CNC(=O)[C@]12CC[C@@H](C)[C@H](C)[C@H]1C1=CC[C@@H]3[C@@]4(C)CC[C@H](OC(C)=O)C(C)(C)[C@@H]4CC[C@@]3(C)[C@]1(C)CC2 | > 20
COC(=O)CN(C)C(=O)[C@]12CC[C@@H](C)[C@H](C)[C@H]1C1=CC[C@@H]3[C@@]4(C)CC[C@H](OC(C)=O)C(C)(C)[C@@H]4CC[C@@]3(C)[C@]1(C)CC2 | > 20
CC(=O)O[C@H]1CC[C@]2(C)[C@H]3CC=C4[C@@H]5[C@@H](C)[C@H](C)CC[C@]5(C(=O)NCCBr)CC[C@@]4(C)[C@]3(C)CC[C@H]2C1(C)C | > 20
C[C@H]1[C@H](C)CC[C@]2(C(=O)OCCCCBr)CC[C@]3(C)C(=CC[C@@H]4[C@@]5(C)CC[C@H](O)C(C)(C)[C@@H]5CC[C@]43C)[C@H]12 [BROMOBUTYL-3BETA-HYDROXY-URS-12-EN-28-OATE] | > 20

SMILES | IC50 at 72 h [µM]
CNC(=O)CN(C)C(=O)[C@]12CC[C@@H](C)[C@H](C)[C@H]1C1=CC[C@@H]3[C@@]4(C)CC[C@H](O)C(C)(C)[C@@H]4CC[C@@]3(C)[C@]1(C)CC2 | > 20
COC(=O)[C@]12CC[C@@H](C)[C@H](C)[C@H]1C1=CC[C@@H]3[C@@]4(C)CC[C@H](OC=O)C(C)(C)[C@@H]4CC[C@@]3(C)[C@]1(C)CC2 | > 20
CNC(=O)CCNC(=O)[C@]12CC[C@@H](C)[C@H](C)[C@H]1C1=CC[C@@H]3[C@@]4(C)CC[C@H](O)C(C)(C)[C@@H]4CC[C@@]3(C)[C@]1(C)CC2 | > 20
C[C@H]1[C@H](C)CC[C@]2(C(=O)OCC(=O)N(C)CCO)CC[C@]3(C)C(=CC[C@@H]4[C@@]5(C)CC[C@H](O)C(C)(C)[C@@H]5CC[C@]43C)[C@H]12 | > 20
C[C@H]1[C@H](C)CC[C@]2(C(=O)OCCN3CCNCC3)CC[C@]3(C)C(=CC[C@@H]4[C@@]5(C)CC[C@H](O)C(C)(C)[C@@H]5CC[C@]43C)[C@H]12 | > 20
C[C@H]1[C@H](C)CC[C@]2(C(=O)OCC(=O)OC(C)(C)C)CC[C@]3(C)C(=CC[C@@H]4[C@@]5(C)CC[C@H](O)C(C)(C)[C@@H]5CC[C@]43C)[C@H]12 | > 20
CNC(=O)CN(C)C(=O)[C@]12CC[C@@H](C)[C@H](C)[C@H]1C1=CC[C@@H]3[C@@]4(C)CC[C@H](OC(C)=O)C(C)(C)[C@@H]4CC[C@@]3(C)[C@]1(C)CC2 | > 20
COC(=O)[C@]12CC[C@@H](C)[C@H](C)[C@H]1C1=CC[C@@H]3[C@@]4(C)CC[C@H](O)C(C)(C)[C@@H]4CC[C@@]3(C)[C@]1(C)CC2 [METHYL URSOLATE] | > 20
C[C@H]1[C@H](C)CC[C@]2(C(=O)OCc3ccccc3)CC[C@]3(C)C(=CC[C@@H]4[C@@]5(C)CC[C@H](O)C(C)(C)[C@@H]5CC[C@]43C)[C@H]12 | > 20
C[C@H]1[C@H](C)CC[C@]2(C(=O)NCC(=O)NCCO)CC[C@]3(C)C(=CC[C@@H]4[C@@]5(C)CC[C@H](O)C(C)(C)[C@@H]5CC[C@]43C)[C@H]12 | > 20
CC(=O)O[C@H]1CC[C@]2(C)[C@H]3CC=C4[C@@H]5[C@@H](C)[C@H](C)CC[C@]5(C(=O)O)CC[C@@]4(C)[C@]3(C)CC[C@H]2C1(C)C [O-ACETYLURSOLIC ACID] | > 20
CC(=O)O[C@H]1CC[C@]2(C)[C@H]3CC=C4[C@@H]5[C@@H](C)[C@H](C)CC[C@]5(C(=O)N[C@@H](C)c5ccccc5)CC[C@@]4(C)[C@]3(C)CC[C@H]2C1(C)C | > 20
C[C@H]1[C@H](C)CC[C@]2(C(=O)OCCCCN3CCNCC3)CC[C@]3(C)C(=CC[C@@H]4[C@@]5(C)CC[C@H](O)C(C)(C)[C@@H]5CC[C@]43C)[C@H]12 | 5.7
C[C@H]1[C@H](C)CC[C@]2(C(=O)NCC(=O)N(CCO)CCO)CC[C@]3(C)C(=CC[C@@H]4[C@@]5(C)CC[C@H](O)C(C)(C)[C@@H]5CC[C@]43C)[C@H]12 | > 20
C[C@H]1[C@H](C)CC[C@]2(C(=O)NCC(=O)O)CC[C@]3(C)C(=CC[C@@H]4[C@@]5(C)CC[C@H](O)C(C)(C)[C@@H]5CC[C@]43C)[C@H]12 | > 20
COC(=O)[C@@H]1CCCN1CCOC(=O)[C@]12CC[C@@H](C)[C@H](C)[C@H]1C1=CC[C@@H]3[C@@]4(C)CC[C@H](O)C(C)(C)[C@@H]4CC[C@@]3(C)[C@]1(C)CC2 | > 20
